Measured values as given in patent publication US4302472A, “Substituted N-(β-alkoxy-ethyl)-N-(4-phenoxy-benzyl)-dichloro-acetamides and process for their preparation” (Farmitalia Carlo Erba S.p.A., priority 1977, dated 1981).

What was measured:
[1] = Approximate acute toxicity (LD50) in the mouse, single administration per os; conditions: in vivo, po, measured on the seventh day
Method: The toxicity of the compounds of the invention is quite negligible. For example, for the compounds A and B mentioned in the foregoing Tables the approximate acute toxicity (LD50) in the mouse, determined with single administration of increasing doses and measured on the seventh day of treatment, was, per os, much higher than 800 mg/kg. Similar LD50 are found also for the other compounds of the invention, in particular for the compounds: […]

[2] = system: Entamoeba histolytica Meah; experiment: In vivo antiamebic activity in intestinal infection in the rat; design: species or system albino rats (strain:Wistar CFHB); key to Mean Score: mean score, 0 = no amoebae/ulceration to 5 = >half cecum ulcerated; conditions: for Mean Score: by gavage, 20 animals, score 0 (no amoebae, no ulceration) to 5, vehicle control 3.5; for ED50: Entamoeba histolytica, po, calculated on the number of animals with score = 0, rat, by gavage twice a day for 21/2 days
Method: The in vivo antiamebic activity in the intestinal infection was determined with a method similar to the method described by Jones (Ann.trop.Med.Paras., 40, 130-140, 1946), as reported hereunder. Young, specific pathogen free albino rats (strain:Wistar CFHB) weighing 30-35 g and fed on a low-protein diet, were infected by intracecal injection with a suspension of trophozoites of Entamoaba histolytica Meah (250,000/rat) containing 3% of Wilson […] mucin. The substances under test and the reference products were administered in serial doses, by gavage twice a day for 21/2 days. The therapeutic effect was determined on the fifth day after infection on the basis of the presence or absence of amebic ulcers in the cecal mucosa and of viable amoebae in the cecal mucosa and in the fecal content of the cecum.
Each animal was assigned a score, according to the following scale:
score 0=no amoebae, no ulceration;
score 1=from 1 to 20 amoebae per faecal smear; no amoeba in the scrape of caecal mucosa; no ulceration;
score 2=from 20 to a very large number of amoebae per smear of feces; no ameoba in the mucosal scrape; no ulceration;
score 3=amoebae originating from microscopic lesions of the cecal mucosa;
score 4=microscopic lesions of the cecal mucosa;
score 5=more than half the cecum ulcerated by amoebic lesions.
The antiamebic activity was expressed both as ED50 calculated according to the number of animals totally free of amoebae (score=0) and as mean score for each dose level.

[3] = system: Entamoeba histolytica Meah; experiment: In vitro antiamebic activity by serial dilutions in monophasic Pavlova medium; format: cell-based; conditions: 48 hours, 37° C.; for minimal amoebicidal concentration, mean: mean of Dosage I-X
Method: The in vitro activity on Entamoeba histolytica Meah was determined on the products under test and on reference compounds, by the method of serial dilutions (ratio 1:1.5) in monophasic Pavlova medium with inoculation of 30,000 protozoa/ml and with incubation at 37° C. for 48 hours.
The level of activity of the compounds was determined by means of direct microscopical examination at 125 and 500 magnifications of the entire sediment of each culture. The results were expressed as minimal amoebicidal concentration in μg/ml.

[4] = Absorption; conditions: in vivo
[5] = system: amoebae within the intestinal wall; experiment: Activity on amoebae within the intestinal wall; conditions: in vivo

SMILES | LD50 at 168 h [1] [mg/kg] | Mean Score ([2]; 6.2 mg/kg × 5 times) | Mean Score ([2]; 12.5 mg/kg × 5 times) | Mean Score ([2]; 25 mg/kg × 5 times) | Mean Score ([2]; 50 mg/kg × 5 times) | ED50 [2] [mg/kg] | minimal amoebicidal concentration ([3]; Dosage I) [µg/mL] | minimal amoebicidal concentration ([3]; Dosage II) [µg/mL] | minimal amoebicidal concentration ([3]; Dosage III) [µg/mL] | minimal amoebicidal concentration ([3]; Dosage IV) [µg/mL] | minimal amoebicidal concentration ([3]; Dosage IX) [µg/mL] | minimal amoebicidal concentration ([3]; Dosage V) [µg/mL] | minimal amoebicidal concentration ([3]; Dosage VI) [µg/mL] | minimal amoebicidal concentration ([3]; Dosage VII) [µg/mL] | minimal amoebicidal concentration ([3]; Dosage VIII) [µg/mL] | minimal amoebicidal concentration ([3]; Dosage X) [µg/mL] | minimal amoebicidal concentration, mean [3] [µg/mL] | absorption [4] | activity on amoebae within the intestinal wall [5]
CCOCCN(Cc1ccc(Oc2ccc(N)cc2)cc1)C(=O)C(Cl)Cl [Compound A, N-(β-ethoxy-ethyl)-N-[4-phenoxy-(4'-amino)-benzyl]-dichloroacetamide] | > 800 | 1.6 | 1.1 | 1.0 | 0.5 | 19 | 0.017 | 0.017 | 0.017 | 0.026 | 0.026 | 0.011 | 0.011 | 0.026 | 0.017 | 0.026 | 0.019 |  | 
CCOCCN(Cc1ccc(Oc2ccc(NC(C)=O)cc2)cc1)C(=O)C(Cl)Cl [Compound B, N-(β-ethoxy-ethyl)-N-[4-phenoxy-(4'-acetamido)-benzyl]-dichloroacetamide] | > 800 |  |  |  |  |  | 0.004 | 0.005 | 0.007 | 0.013 | 0.017 | 0.017 | 0.008 | 0.003 | 0.026 | 0.017 | 0.011 |  | 
CN(C(=O)C(Cl)Cl)c1ccc(OC(=O)c2ccco2)cc1 [Diloxanide furoate] |  |  |  |  |  |  | 0.44 | 0.44 | 0.44 | 0.29 | 0.19 | 0.29 | 0.19 | 0.29 | 0.19 | 0.19 | 0.30 |  | 
CCOCCN(Cc1ccc(Oc2ccc([N+](=O)[O-])cc2)cc1)C(=O)C(Cl)Cl [Etofamide] |  | 3.3 | 1.6 | 1.3 | 1.0 | 29 | 0.026 | 0.026 | 0.058 | 0.058 | 0.058 | 0.026 | 0.017 | 0.039 | 0.017 | 0.039 | 0.036 |  | 
CCOCCN(Cc1ccc(Oc2ccc(NC(=O)CN)cc2)cc1)C(=O)C(Cl)Cl [N-(β-ethoxy-ethyl)-N-[4-phenoxy-(4'-glycinylamino)-benzyl]-dichloroacetamide] |  |  |  |  |  |  |  |  |  |  |  |  |  |  |  |  |  | absorbed to a greater extent | active on amoebae within the intestinal wall itself
CCOCCN(Cc1ccc(CN(CCOCC)C(=O)C(Cl)Cl)cc1)C(=O)C(Cl)Cl [Teclozan] |  |  |  |  |  |  | 0.058 | 0.058 | 0.087 | 0.058 | 0.087 | 0.087 | 0.058 | 0.087 | 0.087 | 0.058 | 0.072 |  | 
